Measurements as given in patent publication US20200009281A1, “ODOR CONTROL AGENT” (priority 2017, published 2020).

Target: T1, Urease Enzyme from Canavalia ensiformis (Jack bean) (Canavalia ensiformis, UniProt P07374)
T1 construct: purchased
Assay: Headspace ammonia measurement over treated cat litter inoculated with synthetic urine and urease
Assay type: biochemical
Conditions: headspace ammonia after 1 day; 100 g NATIONAL 12 Bentonite cat litter plus active, 10 mL inoculant (urea solution + urease); Sensidyne detector tubes
Description: In a bottle add the following components: Urea (ACS Reagent Grade): 18.8 g, and 250 g of deionized water. The bottle is capped and mixed to dissolve urea. The pH of the solution is measured to confirm the pH is between 6.5 and 7.
Immediately before use, mix 6.25 mL of Urease Enzyme from Canavalia ensiformis (Jack bean) in Glycerol (Type III, 500-800 units/mL) with the full volume of Synthetic Urine prepared above.
Charge a plastic bag with 100 g of untreated NATIONAL™ 12 Bentonite (particle size approximately 1.6 mm) cat litter. Add the active component or mixture, as prepared in the Active Mixture Preparation section, to the bag containing the untreated litter. Seal the bag to prevent loss of material and mix by shaking for 30 seconds. Pour the mixture into a hexagonal plastic weighboat contained within a 1 gallon sealable plastic container having a lid with a hole covered with tape. […]
Low (0.2-20 ppm) or high (5-260 ppm) range […] ® Ammonia Gas Detector Tubes are used to quantify the headspace ammonia concentration. The following procedure is used for ammonia detection and quantification in each test sample. […] Read the scale at the maximum point of the stained layer (yellow in color). Read and report the concentration immediately after measurement. If the reading is off scale, for example 20 ppm for the low range tubes, repeat the measurement using the high range gas detector tube. […]

T1 sequence (P07374 whole entry, looked up): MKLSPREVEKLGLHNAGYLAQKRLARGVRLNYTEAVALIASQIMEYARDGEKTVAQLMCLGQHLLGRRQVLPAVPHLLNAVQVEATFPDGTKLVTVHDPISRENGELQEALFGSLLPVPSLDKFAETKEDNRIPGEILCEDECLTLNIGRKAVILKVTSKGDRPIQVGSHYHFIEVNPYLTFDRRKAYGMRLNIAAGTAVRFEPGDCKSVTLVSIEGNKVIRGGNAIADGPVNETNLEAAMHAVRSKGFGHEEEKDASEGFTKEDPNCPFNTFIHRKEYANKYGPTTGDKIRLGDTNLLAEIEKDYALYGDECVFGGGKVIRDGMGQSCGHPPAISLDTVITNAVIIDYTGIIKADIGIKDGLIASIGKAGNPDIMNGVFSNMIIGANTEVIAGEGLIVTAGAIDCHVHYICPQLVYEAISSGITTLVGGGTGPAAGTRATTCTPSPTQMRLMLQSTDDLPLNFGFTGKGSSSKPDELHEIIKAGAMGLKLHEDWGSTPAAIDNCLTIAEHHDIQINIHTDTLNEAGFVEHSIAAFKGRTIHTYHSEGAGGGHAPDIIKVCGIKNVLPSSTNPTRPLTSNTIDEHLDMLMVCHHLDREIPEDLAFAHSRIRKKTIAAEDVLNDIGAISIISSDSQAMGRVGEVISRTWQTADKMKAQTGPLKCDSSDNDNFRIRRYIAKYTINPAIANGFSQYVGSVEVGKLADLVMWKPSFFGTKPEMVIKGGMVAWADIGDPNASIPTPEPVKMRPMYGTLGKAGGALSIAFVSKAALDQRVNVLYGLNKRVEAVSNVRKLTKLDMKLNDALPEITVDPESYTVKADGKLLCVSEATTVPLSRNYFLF

SMILES: O=C([O-])CN(CCN(CC(=O)[O-])CC(=O)O)CC(=O)O.[K+].[K+] [Example 2, K2EDTA]
- ppm Ammonia: 190 ppm

SMILES: O=C(O)CC(O)(CC(=O)O)C(=O)O [Example 3, Citric Acid]
- ppm Ammonia: 140 ppm
